What was measured:
[1] = tested on: phenylquinone-induced writhing reactions; assay: phenylquinone-induced writhing test in mice; assay type: in vivo, mouse
Experimental: The antinociceptive activity of the compounds according to the invention was investigated in mice in the phenylquinone-induced writhing test, modified by I. C. Hendershot, J. Forsaith, J. Pharmacol. Exp. Ther. 125, 237-240 (1959). Male NMRI mice weighing 25-30 g were employed for this. Groups of 10 animals per substance dose received 0.3 ml/mouse of a 0.02% aqueous solution of phenylquinone (phenylbenzoquinone, Sigma, Deisenhofen; preparation of the solution with the addition of 5% ethanol and storage in a water bath at 45° C.) administered intraperitoneally 10 minutes after intravenous administration of a compound according to the invention. The animals were placed individually in observation cages. The number of pain-induced stretching movements (so-called writhing reactions=straightening of the body with stretching of the hind extremities) was counted by means of a push-button counter for 5-20 minutes after the administration of phenylquinone.
The ED50 values of the writhing reaction were calculated by means of regression analysis (evaluation program, Martens EDV Service, Eckental) from the dose-dependent decrease in writhing reactions compared with animal groups investigated in parallel to which no compound according to the invention was administered.
The majority of the substances were tested in the standard dose of 10 mg/kg. The percentage inhibition (% inhibition) of the writhing reactions by a substance was then calculated according to the following equation: [formula] The results are summarized in table 1 for selected compounds.

[2] = male NMRI mice, standard dose of 10 mg/kg

CN(C)CC1=C(Cc2ccc(Cl)cc2)c2cccc(O)c2CC1.Cl [Example 4c, 5-(4-Chlorobenzyl)-6-dimethylaminomethyl-7,8-dihydro-naphth-1-ol hydrochloride]
melting point: 136 to 139 °C
Writhing test, mouse, i.v. decrease in writhing reactions (% inhibition) [1, 2]: 84%

CN(C)CC1=C(Cc2cccc(O)c2)c2ccccc2OCC1.Cl [Example 6a, 3-(4-Dimethylaminomethyl-2,3-dihydro-benzo[b]oxepin-5-ylmethyl)-phenol hydrochloride]
Writhing test, mouse, i.v. decrease in writhing reactions (% inhibition) [1, 2]: 95%

CN(C)CC1CCOc2ccccc2/C1=C/c1cccc(O)c1.Cl (racemic) [Example 6b, E-(4RS)3-(4-Dimethylaminomethyl-3,4-dihydro-2H-benzo[b]oxepin-5-ylidene-methyl)-phenol hydrochloride]
Writhing test, mouse, i.v. decrease in writhing reactions (% inhibition) ([1]; male NMRI mice, dose 21.5 mg/kg as printed in table 1): 91% [21.5 mg/kg]
inhibition of writhing reactions ([1]; mouse, i.v., dose of 2.15 mg/kg body weight as printed in text): 91%

CN(C)CC1CCOc2ccccc2/C1=C\c1ccc(Cl)cc1.Cl (racemic) [Example 7c, Z-(4RS) [5-(4-Chlorobenzylidene)-2,3,4,5-tetrahydro-benzo[b]oxepin-4-yl-methyl]-dimethylamine hydrochloride]
Writhing test, mouse, i.v. decrease in writhing reactions (% inhibition) [1, 2]: 79%

CN(C)CC1=C(Cc2cccc(O)c2)c2ccccc2CC1.Cl [Example 3, 3-(2-Dimethylaminomethyl-3,4-dihydro-naphth-1-ylmethyl)-phenol hydrochloride]
Writhing test, mouse, i.v. decrease in writhing reactions (% inhibition) [1, 2]: 93%

CN(C)CC1CCCc2ccccc2/C1=C/c1ccc(Cl)cc1.Cl (racemic) [Example 4e, E-(5RS)-[5-(4-Chlorobenzylidene)-6,7,8,9-tetrahydro-5H-benzocyclohepten-6-ylmethyl]-dimethylamine hydrochloride]
Writhing test, mouse, i.v. decrease in writhing reactions (% inhibition) [1, 2]: 69%

CN(C)CC1=C(Cc2ccc(Cl)cc2)c2ccc(O)cc2CC1.Cl
melting point: 110 °C (dec.)

CN(C)CC1=C(Cc2ccc(Cl)cc2)c2ccccc2CC1.Cl [Example 2]
Writhing test, mouse, i.v. ED50 ([1]; male NMRI mice, 10 minutes before phenylquinone i.p.): 6.85 mg/kg
Writhing test, mouse, i.v. decrease in writhing reactions (% inhibition) [1, 2]: 61.5%

CN(C)CC1=C(Cc2ccc(Cl)cc2)c2ccccc2CCC1.Cl
melting point: 240 to 243 °C

CN(C)CC1=C(Cc2ccc(Cl)cc2Cl)c2ccccc2CC1.Cl
melting point: 208 to 209 °C

CN(C)CC1CCOc2ccccc2/C1=C\c1cccc(O)c1.Cl (racemic) [Example 6c, Z-(4RS)3-(4-Dimethylaminomethyl-3,4-dihydro-2H-benzo[b]oxepin-5-ylidene-methyl)-phenol hydrochloride]
Writhing test, mouse, i.v. decrease in writhing reactions (% inhibition) [1, 2]: 78%
